Marks after values point to notes of the source that are not given here.
Tested on: Escherichia coli strain K12 (ATCC 25253)
Assay: Inhibitive evaluation: hydrogen sulfide generation in synthetic waste water media inoculated with E. coli
Format: cell-based
Details: for H2S in ppm vs. contact times, 24 Hours: 24 hours contact time; for H2S in ppm vs. contact times, 48 Hours: 48 hours contact time; for H2S in ppm vs. contact times, 72 Hours: 72 hours contact time
Method: An experiment was conducted to evaluate the effectiveness of recreational vehicle (Black) waste water tank deodorizer in preventing […] degradation processes that result in unpleasant odors. The effectiveness of the tank deodorizer was evaluated through the inhibition of growth using an E. Coli within a synthetic waste water media. This comparison of the respective products inhibition was over selected time periods from 5 to 7 days.
500 grams total of synthetic soil media was prepared having the following ingredients:
RV biodegradable toilet paper (small pieces) . . . 5.0 g • With the exception of the oatmeal and toilet paper, the above ingredients were mixed together and heated to 55° C. with constant mixing for 15 to 20 minutes. The oatmeal and toilet paper were then added and thoroughly mixed in. Mixture is allowed to cool to room temperature, then transferred to the waste water tank/digester test vessel.
Escherichia coli strain K12 (ATCC 25253) was employed.
1. To build up the count of microbes, using a 48-hour Nutrient Broth culture incubated at 37° C. of the E. Coli or other selected organism, the culture must be on at least the fourth consecutive 24-hour transfer before using. Have one tube of the 48-hour culture available for each of the test vessels.
2. Before inoculating the surrogate black waste water tank test vessel containing the synthetic soil media, the number of organisms being utilized was verified to achieve a range no less than a count of log^8 per milliliter. Serial dilutions of the E. coli culture were prepared as follows:
a.) Tube • #1. 1.0 ml organism culture+9.0 ml Nutrient Broth=1/10 • #2. 1.0 ml tube #1 dilution+9.0 ml Nutrient Broth=1/10^−2 • #3. 1.0 ml tube #2 dilution+9.0 ml Nutrient Broth=1/10^−3 • #4. 1.0 ml tube #3 dilution+9.0 ml Nutrient Broth=1/10^−4 • #5. 1.0 ml tube #4 dilution+9.0 ml Nutrient Broth=1/10^−5 • #6. 1.0 ml tube #5 dilution+9.0 ml Nutrient Broth=1/10^−6 • #7. 1.0 ml tube #6 dilution+9.0 ml Nutrient Broth=1/10^−7 • #8. 1.0 ml tube #7 dilution+9.0 ml Nutrient Broth=1/10^−8 • *Note: each dilution was thoroughly mixed before transferring to the next tube. b.) Each dilution was plated by the pour plate method. 1.0 ml of dilution was plated with 10.0 ml TGY pour plate agar. Plates were incubated at 37° C. for 48 hrs before reading for enumeration.
3. Specified amounts of test subject deodorizer from the chart below were added to the test vessel containing the 500 grams of the synthetic soil media and mix thoroughly to assure uniform distribution.
4. 5.0 ml of the E. coli culture from step #1 were added to the test vessel and thoroughly mixed to assure uniform distribution. This brought the organism count to a range to greater than 1.0×10^4 cfu/ml in the 500 g of synthetic soil media.
5. Caps were placed on the test vessels and the vessels were stored at a temperature of 80° F. during the 5 day or more evaluation period. Note: Tests may be performed at various temperatures at the discretion of the investigator. For example, 100° F. incubation may be used to reflect very high summer temperature test environments.
6. At 24 hrs contact time, handling was in such a manner as to minimize movement of the container and sewage inside. The cap was quickly removed from the test vessel and the holding cradle containing the H2S monitor was placed over the mouth of the test vessel for 4 minutes. During the 4 minute testing period the container was maintained as still as possible. • *Note: monitor must be zeroed before each reading taken.
7. After 4 minute of testing was completed, the monitor and cradle were removed from the mouth of the vessel and the cap replaced. Peak gas readings in ppm of H2S were recorded. Steps 6 & 7 were repeated for each test vessel in set.
8. Steps (6-7) were repeated for each of the remaining contact times of 48 hrs, 72 hrs, 96 hrs, 120 hrs. It should be noted that other times could be adopted for standardization of the protocol and that these times are simply preferred. […]

[1] = 0.78 ml/500 g synthetic soil media (8 oz per 40 gal tank), 80° F., peak head space reading, >5 ppm unacceptable

| Compound | H2S in ppm vs. contact times, 24 Hours [1] [ppm] | H2S in ppm vs. contact times, 48 Hours [1] [ppm] | H2S in ppm vs. contact times, 72 Hours [1] | H2S in ppm vs. contact times, 96 Hours (96 hours contact time, 0.78 ml/500 g synthetic soil media (8 oz per 40 gal tank), 80° F., peak head space reading, >5 ppm unacceptable) [ppm] | H2S in ppm vs. contact times, 120 Hours (120 hours contact time, 0.78 ml/500 g synthetic soil media (8 oz per 40 gal tank), 80° F., peak head space reading, >5 ppm unacceptable) [ppm] | Performance in H2S inhibition compared with the Aqua Kem control (over 120 hours, 0.78 ml/500 g synthetic soil media) |
| --- | --- | --- | --- | --- | --- | --- |
| O=[N+]([O-])C(Br)(CO)CO [Bronopol, 2-bromo-2-nitropropane-1,3-diol] | 0 | 0 | 0 ppm | 0 | 0 | The * indicates when each active had reached the unacceptable level of odor value. The two best performing actives that were equal to or near the performance of the Aqua Kem control were the Bronopol and Neolone M-10. |
| C1N2CN3CN1CN(C2)C3 [Hexamethylene-Tetramine] | 2 | 2 | 48* ppm | – | – | – |
